What was measured:
[1] = system: foxtail, giant; test: Test A postemergence; type: in vivo, Setaria faberi
Method in brief: (§1)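 Seeds in loam–sand blend received a directed preemergence soil spray of compound in non-phytotoxic solvent with surfactant; postemergence plants (2–10 cm, one- to two-leaf stage) were sprayed with the same formulation. After 10 days in greenhouse, injury was rated visually versus untreated controls, 0 (no effect) to 100 (complete control).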

[2] = system: sedge, umbrella; test: Test B flooded paddy test; type: in vivo, Cyperus difformis; settings: 250 g ai/ha, Flood, 13 days, 0 to 100 scale (0 no effect, 100 complete control)
Method in brief: (§2)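 Visual scores from 0 (no effect) to 100 (complete kill) were assigned 13 days after treatment by comparison with controls. Seedlings had been treated at two leaves by adding compound to floodwater standing 3 cm deep, kept at that level in the greenhouse.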

[3] = system: corn; test: Test A postemergence; type: in vivo, Zea mays
Method in brief: as §1

[4] = system: ryegrass, Italian; test: Test A postemergence; type: in vivo, Lolium multiflorum
Method in brief: as §1

[5] = system: barnyardgrass; test: Test B flooded paddy test; type: in vivo, Echinochloa crus-galli; settings: 250 g ai/ha, Flood, 13 days, 0 to 100 scale (0 no effect, 100 complete control)
Method in brief: as §2

[6] = system: barnyardgrass; test: Test A preemergence; type: in vivo, Echinochloa crusgalli
Method in brief: as §1

[7] = system: Pigweed, Redroot; test: Test A preemergence; type: in vivo, Amaranthus retroflexus
Method in brief: as §1

[8] = system: Pigweed, Redroot; test: Test A postemergence; type: in vivo, Amaranthus retroflexus
Text: Seeds of plant species selected from barnyardgrass (Echinochloa crusgalli), blackgrass (Alopecurus myosuroides), corn (Zea mays), foxtail, giant (giant foxtail, Setaria faberi), goosegrass (Eleusine indica), kochia (Bassia scoparia), oat, wild (wild oat, Avena fatua), pigweed, palmer (palmer amaranth, palmer pigweed, Amaranthus palmeri), Pigweed, Redroot (redroot pigweed, Amaranthus retroflexus), ragweed (common ragweed, Ambrosia artemisiifolia), ryegrass, Italian (italian ryegrass, Lolium multiflorum), soybean (Glycine max), and wheat (Triticum aestivum) were planted into a blend of loam soil and sand and treated preemergence with a directed soil spray using test chemicals formulated in a non-phytotoxic solvent mixture which included a surfactant. At the same time, plants selected from these crops and weed species and also galium (catchweed bedstraw, Galium aparine) and horseweed (Erigeron canadensis) were planted in pots containing the same blend of loam soil and sand and treated with postemergence applications of test chemicals formulated in the same manner. Plants ranged in height from 2 to 10 cm and were in the one- to two-leaf stage for the postemergence treatment. Treated plants and untreated controls were maintained in a greenhouse for 10 days, after which time all treated plants were compared to untreated controls and visually evaluated for injury. Plant response ratings, summarized in Table A, are based on a 0 to 100 scale where 0 is no effect and 100 is complete control. A dash (-) response means no test result.

[9] = system: wheat; test: Test A postemergence; type: in vivo, Triticum aestivum
Method in brief: as §1

[10] = system: rice; test: Test B flooded paddy test; type: in vivo, Oryza sativa; settings: 250 g ai/ha, Flood, 13 days, 0 to 100 scale (0 no effect, 100 complete control)
Method in brief: as §2

[11] = system: blackgrass; test: Test A postemergence; type: in vivo, Alopecurus myosuroides
Method in brief: as §1

[12] = system: foxtail, giant; test: Test A preemergence; type: in vivo, Setaria faberi
Method in brief: as §1

[13] = system: barnyardgrass; test: Test A postemergence; type: in vivo, Echinochloa crusgalli
Method in brief: as §1

[14] = system: ducksalad; test: Test B flooded paddy test; type: in vivo, Heteranthera limosa; settings: 250 g ai/ha, Flood, 13 days, 0 to 100 scale (0 no effect, 100 complete control)
Method in brief: as §2

[15] = system: kochia; test: Test A preemergence; type: in vivo, Bassia scoparia
Method in brief: as §1

[16] = system: ragweed; test: Test A postemergence; type: in vivo, Ambrosia artemisiifolia
Method in brief: as §1

[17] = system: ragweed; test: Test A preemergence; type: in vivo, Ambrosia artemisiifolia
Method in brief: as §1

[18] = system: galium; test: Test A postemergence; type: in vivo, Galium aparine
Method in brief: as §1

[19] = system: kochia; test: Test A postemergence; type: in vivo, Bassia scoparia
Method in brief: as §1

[20] = system: ryegrass, Italian; test: Test A preemergence; type: in vivo, Lolium multiflorum
Method in brief: as §1

[21] = 1000 g ai/ha, 0 to 100 scale (0 no effect, 100 complete control), 10 days
[22] = 1000 g ai/ha, Postemergence, 0 to 100 scale
[23] = 125 g ai/ha, postemergence, 10 days, visual injury, 0 to 100 scale (0 no effect, 100 complete control)
[24] = 500 g ai/ha, Postemergence, 0 to 100 scale
[25] = 125 g ai/ha, visual injury after 10 days, 0 to 100 scale, 0 is no effect, 100 is complete control
[26] = 500 g ai/ha, 0 to 100 scale (0 no effect, 100 complete control), 10 days

O=C(c1cccc(-n2cncn2)c1)N1CC(C2CC2)Oc2c(Cl)cccc21 (stereo not shown) [Compound 22, (8-Chloro-2-cyclopropyl-2,3-dihydro-4H-1,4-benzoxazin-4-yl)[3-(1H-1,2,4-triazol-1-yl)phenyl]methanone]
pest or weed control at 1000 g/ha ([1]; Setaria faberi, post-emergence, 240 h, 1000 g ai/ha, Postemergence, 0 to 100 scale, read-out: Plant response rating, Foxtail, Giant): 80% | pest or weed control at 250 g/ha ([2]; Cyperus difformis, 312 h, read-out: Plant response rating, Sedge, Umbrella): 0% | Corn plant response rating (crop injury, 0 = no effect, 100 = complete kill) at 1000 g/ha ([3]; Zea mays, post-emergence, 240 h, 1000 g ai/ha, Postemergence, 0 to 100 scale): 70% | pest or weed control at 1000 g/ha ([4]; Lolium multiflorum, post-emergence, 240 h, 1000 g ai/ha, Postemergence, 0 to 100 scale, read-out: Plant response rating, Ryegrass, Italian): 60% | pest or weed control at 250 g/ha ([5]; Echinochloa crus-galli, 312 h, read-out: Plant response rating, Barnyardgrass): 0% | Plant response rating, Barnyardgrass [6, 21]: 90 | Plant response rating, Pigweed, Redroot [7, 21]: 60 | Plant response rating, Pigweed, Redroot [8, 22]: 60 | plant injury at 1000 g/ha ([9]; Triticum aestivum, post-emergence, 240 h, 1000 g ai/ha, Postemergence, 0 to 100 scale, read-out: Plant response rating, Wheat): 60% | plant injury at 250 g/ha ([10]; Oryza sativa, 312 h, read-out: Plant response rating, Rice): 0% | pest or weed control at 1000 g/ha ([11]; Alopecurus myosuroides, post-emergence, 240 h, 1000 g ai/ha, Postemergence, 0 to 100 scale, read-out: Plant response rating, Blackgrass): 80% | pest or weed control at 1000 g/ha ([12]; Setaria faberi, pre-emergence, 240 h, 1000 g ai/ha, 0 to 100 scale (0 no effect, 100 complete control), 10 days, read-out: Plant response rating, Foxtail, Giant): 90% | Plant response rating, Barnyardgrass [13, 22]: 50 | pest or weed control at 250 g/ha ([14]; Heteranthera limosa, 312 h, read-out: Plant response rating, Ducksalad): 0% | pest or weed control at 1000 g/ha ([15]; Bassia scoparia, pre-emergence, 240 h, 1000 g ai/ha, 0 to 100 scale (0 no effect, 100 complete control), 10 days, read-out: Plant response rating, Kochia): 50% | pest or weed control at 1000 g/ha ([16]; Ambrosia artemisiifolia, post-emergence, 240 h, 1000 g ai/ha, Postemergence, 0 to 100 scale, read-out: Plant response rating, Ragweed): 50% | pest or weed control at 1000 g/ha ([17]; Ambrosia artemisiifolia, pre-emergence, 240 h, 1000 g ai/ha, 0 to 100 scale (0 no effect, 100 complete control), 10 days, read-out: Plant response rating, Ragweed): 20% | pest or weed control at 1000 g/ha ([18]; Galium, post-emergence, 240 h, 1000 g ai/ha, Postemergence, 0 to 100 scale, read-out: Plant response rating, Galium): 90% | pest or weed control at 1000 g/ha ([19]; Bassia scoparia, post-emergence, 240 h, 1000 g ai/ha, Postemergence, 0 to 100 scale, read-out: Plant response rating, Kochia): 70% | pest or weed control at 1000 g/ha ([20]; Lolium multiflorum, pre-emergence, 240 h, 1000 g ai/ha, 0 to 100 scale (0 no effect, 100 complete control), 10 days, read-out: Plant response rating, Ryegrass, Italian): 90%

C[C@H]1CN(C(=O)c2cccc(-n3cnnn3)c2)c2cccc(Cl)c2O1 [Compound 115]
Plant response rating, Foxtail, Giant [1, 22]: 40 | Plant response rating, Sedge, Umbrella [2]: 0 | Plant response rating, Corn [3, 22]: 40 | Plant response rating, Ryegrass, Italian [4, 22]: 60 | Plant response rating, Barnyardgrass [5]: 0 | Plant response rating, Barnyardgrass [6, 21]: 70 | Plant response rating, Pigweed, Redroot [7, 21]: 80 | Plant response rating, Pigweed, Redroot [8, 22]: 30 | Plant response rating, Wheat [9, 22]: 50 | Plant response rating, Rice [10]: 0 | Plant response rating, Blackgrass [11, 22]: 50 | Plant response rating, Foxtail, Giant [12, 21]: 90 | Plant response rating, Barnyardgrass [13, 22]: 50 | Plant response rating, Ducksalad [14]: 0 | Plant response rating, Kochia [15, 21]: 40 | Plant response rating, Ragweed [16, 22]: 0 | Plant response rating, Ragweed [17, 21]: 30 | Plant response rating, Galium [18, 22]: 70 | Plant response rating, Kochia [19, 22]: 0 | Plant response rating, Ryegrass, Italian [20, 21]: 90

CCC1CN(C(=O)c2cccc(-n3cncn3)c2)c2cccc(Cl)c2O1 (racemic) [Compound 7]
Plant response rating, Foxtail, Giant [1, 23]: 10 | Plant response rating, Foxtail, Giant [1, 24]: 20 | Plant response rating, Sedge, Umbrella [2]: 0 | Plant response rating, Corn [3, 23]: 0 | Plant response rating, Corn [3, 24]: 0 | Plant response rating, Ryegrass, Italian [4, 23]: 0 | Plant response rating, Ryegrass, Italian [4, 24]: 0 | Plant response rating, Barnyardgrass [5]: 0 | Plant response rating, Barnyardgrass [6, 25]: 0 | Plant response rating, Barnyardgrass [6, 26]: 0 | Plant response rating, Pigweed, Redroot [7, 25]: 0 | Plant response rating, Pigweed, Redroot [7, 26]: 40 | Plant response rating, Pigweed, Redroot [8, 23]: 0 | Plant response rating, Pigweed, Redroot [8, 24]: 30 | Plant response rating, Wheat [9, 23]: 30 | Plant response rating, Wheat [9, 24]: 40 | Plant response rating, Rice [10]: 0 | Plant response rating, Blackgrass [11, 23]: 0 | Plant response rating, Blackgrass [11, 24]: 30 | Plant response rating, Foxtail, Giant [12, 25]: 10 | Plant response rating, Foxtail, Giant [12, 26]: 80 | Plant response rating, Barnyardgrass [13, 23]: 10 | Plant response rating, Barnyardgrass [13, 24]: 20 | Plant response rating, Ducksalad [14]: 0 | Plant response rating, Kochia [15, 25]: 40 | Plant response rating, Kochia [15, 26]: 80 | Plant response rating, Ragweed [16, 23]: 0 | Plant response rating, Ragweed [16, 24]: 0 | Plant response rating, Ragweed [17, 25]: 0 | Plant response rating, Ragweed [17, 26]: 0 | Plant response rating, Galium [18, 23]: 0 | Plant response rating, Galium [18, 24]: 60 | Plant response rating, Kochia [19, 23]: 0 | Plant response rating, Kochia [19, 24]: 20 | Plant response rating, Ryegrass, Italian [20, 25]: 50 | Plant response rating, Ryegrass, Italian [20, 26]: 50
